Results from patent US20250144178A1, “PHARMACEUTICAL COMPOSITION FOR CANCER TREATMENT COMPRISING FUSION PROTEIN INCLUDING IL-12 AND ANTI-FAP ANTIBODY AND ANTICANCER AGENT” (KANAPH THERAPEUTICS INC., priority 2022, published 2025).

Assays:
human T cells = test: IFN-γ secretion in human T cells (ELISA); format: cell-based; details: anti-CD3 activated human T cells, 48 hours, FIG. 21
Protocol: For cytokine measurement, enzyme-linked immunosorbent assay (ELISA, R&D systems) was performed on the supernatant stored at −20° C. in the following steps:
(i) The capture antibody was diluted according to the Certificate of Analysis (CoA) and coated on a 96-well plate for 24 hours.
(ii) The wells were washed with a wash solution, and then blocking was performed for 1 hour with 1% BSA (Bovine serum albumin, Sigma) solution.
(iii) The wells were washed with a wash solution, and then the samples were treated for 2 hours.
(iv) The wells were washed with a wash solution, and then the detection antibody was diluted according to the Certificate of Analysis and aliquoted into the wells, and then the wells were treated therewith for 2 hours.
(v) The wells were washed with a wash solution, and then treated with streptavidin-HRP for 20 minutes.
(vi) The wells were washed with a wash solution, and then treated with a substrate solution for 20 minutes.
(vii) The wells were treated with a stop solution, and the absorbance was measured at 450 nm.
Specifically, the human T cells activated with anti-CD3 (OKT3, Invitrogen) were diluted to 5×10^5 cells/ml and dispensed in a 96-well plate at 200 μl/well. Recombinant human IL-12, T1.12, T1.01, T1.02 and T1.03 were diluted to 10 nM and dispensed at 20 μl/well. […]

[1] = system: IL-12 receptor of human T cells; test: p-STAT4 signaling ability in human T cells (AlphaLISA); format: cell-based; details: anti-CD3 activated human T cells, 2 hours, FIG. 19; read-out: half maximal effective concentration (EC50), p-STAT4
Protocol: In order to identify whether when IL-12 binds to the IL-12 receptor of human T cells, IL-12 initiate signaling by inducing phosphorylation of STAT4, a signaling mediator, the human T cells activated with anti-CD3 (OKT3, Invitrogen) were analyzed using the AlphaLISA SureFire Ultra p-STAT4 (Tyr693) Assay Kit (PerkinElmer, Massachusetts, USA).
Specifically, human proteins IL-12, T1.01, T1.02, T1.03 and T1.12 were suspended at 100 ng/ml and diluted by serial dilution. The human T cells activated with anti-CD3 (OKT3, Invitrogen) were treated with the diluted recombinant human IL-12, T1.01, T1.02, T1.03 and T1.12. After 2 hours of treatment, the cells were lysed and treated with a reagent (PerkinElmer) that detects p-STAT4 (phosphorylated STAT4). pSTAT4 was detected at an excitation wavelength of 680 nm and an emission wavelength of 615 nm with a spectrophotometer.

HEK-Blue IL-12 cells = test: Signaling ability in IL-12 recognizing cells (STAT4 inducible SEAP reporter); format: cell-based, human; details: serial dilution from 4 nM, 24 hours, FIG. 18
Protocol: The HEK-Blue IL-12 cell line transformed with the IL-12 receptor gene and the STAT4 inducible SEAP reporter gene into HEK293 cells, which are human embryonic kidney fibroblasts, was obtained from Invivogen (San Diego, USA). The HEK-Blue IL-12 cells were maintained in DMEM (GIBCO) containing 10% FBS (GIBCO), 100 μg/ml Normocin and 1×HEK-Blue selection.
Specifically, the HEK-Blue IL-12 cell line, which is an IL-12 recognizing cell, was diluted to 2.8×10^5 cells/ml and dispensed at 180 μl/well. Recombinant human IL-12, T1.01m, T1.02m, T1.03m and T1.12m were suspended at 4 nM and diluted by serial dilution. HEK-Blue IL-12 cells were treated with the diluted recombinant human IL-12, T1.01m, T1.02m, T1.03m and T1.12m. After 24 hours of treatment, the cell supernatant was collected and mixed with QUANTI-Blue Solution (Invivogen) in a 96-well plate. The reporter expression level was measured at 620 nm using a spectrophotometer (Thermo Fisher).

recombinant human IL-12: Recombinant human IL-12 used as comparator in signaling and IFN-γ secretion tests [reference compound]
average IFN-γ in supernatant (human T cells): 1,640 pg/ml
EC50 [1]: 8.95 pM
IL-12 recognition / STAT4 reporter gene expression (620 nm absorbance) (HEK-Blue IL-12 cells): IL-12 was recognized, and STAT4 expressed a reporter gene by inducing phosphorylation
